Columns and labels:
[1] = molecular target: T1, Type-2 angiotensin II receptor (Rattus norvegicus, UniProt P35351); assay: Displacement of […][Sar1,IIe8]AII from rat midbrain angiotensin II (AT2) receptor
T1 sequence (P35351 whole entry): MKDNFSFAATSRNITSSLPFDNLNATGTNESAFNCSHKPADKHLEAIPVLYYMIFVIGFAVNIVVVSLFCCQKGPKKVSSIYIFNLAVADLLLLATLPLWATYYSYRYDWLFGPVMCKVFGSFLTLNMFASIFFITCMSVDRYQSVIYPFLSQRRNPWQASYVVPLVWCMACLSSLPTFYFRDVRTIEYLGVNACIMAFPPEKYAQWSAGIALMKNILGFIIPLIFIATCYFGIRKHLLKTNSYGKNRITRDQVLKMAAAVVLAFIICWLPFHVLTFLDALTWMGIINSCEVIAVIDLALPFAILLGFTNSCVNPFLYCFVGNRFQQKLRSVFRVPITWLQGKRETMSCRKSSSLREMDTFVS

[2] = molecular target: T2, Type-1 angiotensin II receptor (Oryctolagus cuniculus, UniProt P34976); assay: Displacement of […][Sar1,IIe8]AII from rabbit aorta Angiotensin II receptor, type 1; format: tissue-based
T2 sequence (P34976 whole entry): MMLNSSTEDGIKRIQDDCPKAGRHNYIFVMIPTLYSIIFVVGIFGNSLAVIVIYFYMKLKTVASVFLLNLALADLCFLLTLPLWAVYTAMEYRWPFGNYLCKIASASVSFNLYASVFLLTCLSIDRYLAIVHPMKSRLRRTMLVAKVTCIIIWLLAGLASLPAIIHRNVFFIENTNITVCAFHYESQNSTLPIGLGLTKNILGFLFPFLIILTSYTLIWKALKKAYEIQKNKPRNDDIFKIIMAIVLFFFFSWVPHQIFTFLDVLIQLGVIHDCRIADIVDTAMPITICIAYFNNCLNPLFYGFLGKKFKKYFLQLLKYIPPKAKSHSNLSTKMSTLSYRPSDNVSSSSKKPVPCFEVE

Compound	IC50 [1] [nM]	IC50 [2] [nM]
CCCc1cc(Cn2c(CC)nc3c(C)cc(C)nc32)cc(CCC)c1OC(C(=O)O)c1ccccc1C (stereo not drawn)	7500	1.2
CCCc1cc(Cn2c(CC)nc3c(C)cc(C)nc32)cc(CCC)c1OC(C(=O)O)c1cccc(Cl)c1 (stereo not drawn)	2300	0.75
CCCc1cc(Cn2c(CC)nc3c(C)cc(C)nc32)cc(CCC)c1OC(C(=O)O)c1ccccc1 (stereo not drawn)	2600	0.9
CCCc1cc(Cn2c(CC)nc3c(C)cc(C)nc32)cc(CCC)c1OC(C(=O)O)c1cccc(C)c1 (stereo not drawn)	800	0.74
CCCc1cc(Cn2c(CC)nc3c(C)cc(C)nc32)cc(CCC)c1OC(C(=O)O)c1cccc(-c2ccccc2)c1 (stereo not drawn)	740	6.8
CCCc1cc(Cn2c(CC)nc3c(C)cc(C)nc32)cc(CCC)c1OC(C(=O)O)c1ccccc1Cl (stereo not drawn)	3500	0.53
CCCc1cc(Cn2c(CC)nc3c(C)cc(C)nc32)cc(CCC)c1OC(C(=O)O)c1ccc(CC)cc1 (stereo not drawn)	240	19
CCCc1cc(Cn2c(CC)nc3c(C)cc(C)nc32)cc(CCC)c1OC(C(=O)O)c1ccc(C)cc1 (stereo not drawn)	400	4
CCCc1cc(Cn2c(CC)nc3c(C)cc(C)nc32)cc(CCC)c1OC(C(=O)O)c1ccc(Oc2ccccc2)cc1 (stereo not drawn)	1900	5.2
CCCc1cc(Cn2c(CC)nc3c(C)cc(C)nc32)cc(CCC)c1OC(C(=O)O)c1ccc(Cl)cc1 (stereo not drawn)	450	2.8
CCCc1cc(Cn2c(CC)nc3c(C)cc(C)nc32)cc(CCC)c1OC(C(=O)O)c1cccc(Oc2ccccc2)c1 (stereo not drawn)	1600	0.47
CCc1nc2c(C)cc(C)nc2n1Cc1ccc(-c2ccccc2-c2nnn[nH]2)cc1 [L-158809]	> 10000	–

— ChEMBL document CHEMBL1127032, “(Dipropylphenoxy)phenylacetic acids: a new generation of nonpeptide angiotensin II receptor antagonists” (J Med Chem, 1993)
